{
  "source": "paper PMC3225806",
  "about": "(Chemistry & biology, 2011)",
  "test_system": "full-length JFH-1 replicon",
  "assay": "replicon model, intracellular HCV RNA by RT-qPCR",
  "format": "cell-based, hepatitis C virus in Huh-7 cells",
  "details": "peptides 20 µM, controls 1 µM, 48 hours",
  "data": [
    {"compound": "COc1ccc2c(O[C@@H]3C[C@H]4C(=O)N[C@]5(C(=O)O)C[C@H]5/C=C\\CCCCC[C@H](NC(=O)OC5CCCC5)C(=O)N4C3)cc(-c3csc(NC(C)C)n3)nc2c1", "note": "[BILN2061]", "values": [
      {"measurement": "intracellular HCV RNA levels in replicon cells", "value": "efficiently reduced HCV RNA levels"}
    ]},
    {"compound": "C[C@@]1(O)[C@H](O)[C@@H](CO)O[C@H]1n1ccc(N)nc1=O", "note": "[Peptide 2-CMC, 2’-C-methylcytidine]", "values": [
      {"measurement": "intracellular HCV RNA levels in replicon cells", "value": "efficiently reduced HCV RNA levels"}
    ]}
  ]
}
